From US20160129005A1, “ADENINE DERIVATIVES HAVING IMMUNOMODULATING ANTI-INFLAMMATORY AND ANALGESIC ACTIVITY” (MEDESTEA RESEARCH & PRODUCTION S.p.A., priority 2011, published 2016)

Experiments:
[1] = system: mice; test: Visceral pain: acetic acid model; type: in vivo, mouse; conditions: 4 mg/kg intraperitoneally; FIG. 20
Protocol: We verified the effect of […] on a model of visceral pain. 30 mice were divided into two groups of 15: one group received […] 4 mg/kg intraperitoneally while the other group was treated with only the pharmaceutical vehicle. After the pre-treatment injection, 0.6% acetic acid was administered as a bolus injection 0.3 ml IP. The mice were put in individual observation chambers for assessing, after a period of 20 minutes, the number of contractions induced in each animal following injection of acetic acid. The count started 5 minutes after administration of acetic acid.

[2] = system: U937 cells; test: Production of VEGF in supernatant of U937 culture; type: cell-based, human; conditions: FIG. 2
Protocol: The inhibitory action of […] on the production of VEGF in the supernatant of U937 in culture was also evaluated.

[3] = system: C57BL/6 WT mice; test: Allergic contact dermatitis (TNCB sensitization, ear thickness); type: in vivo, mouse; conditions: 2 mg/kg injected locally in the auricle 4 hours before stimulus; FIG. 36
Protocol: C57BL/6 WT mice are sensitized by applying, on day 0, 100 μl of 3% TNCB (2,4,6-trinitrochlorobenzene) in acetone, or only acetone as control, on the skin of the abdomen.
As stress, 20 μl of 1% TNCB is applied on the skin of the back of both ears on day 5. This stress causes an allergic reaction that is manifested as swelling and reddening. The thickness of the ear (symptom of swelling) is measured 24 hours after application of the stimulus, using callipers (Mitutoyo). […] was injected locally in the auricle at a dose of 2 mg/kg 4 hours before the […] stimulus.

[4] = system: mice; test: Asthma: ovalbumin sensitization and aerosol challenge, BALF; type: in vivo, mouse; conditions: 6 mg/kg intratracheal 30 minutes before OA aerosol; FIG. 38
Protocol: Sensitization of mice with ovalbumin (OA) adsorbed on aluminium hydroxide, administered intraperitoneally on day 0 and day 7, can cause a similar asthmatic manifestation when the mouse is subsequently (days 19-21) challenged with OA aerosol. The mice were anaesthetized 30 minutes before the OA aerosol and the treated group received an intratracheal injection of […] 6 mg/kg.
Twenty-four hours after the last administration of OA, a bronchoalveolar lavage was carried out with 3×1 ml of PBS free from calcium and magnesium ions.

[5] = system: female NZB/NZW F1 mice; test: Systemic lupus erythematosus model; type: in vivo, mouse
Protocol: Systemic lupus erythematosus (SLE) is a chronic autoimmune disease that generally begins with arthritis or arthralgia. Haematuria or proteinuria may be the only renal symptom, however, lupus glomerulonephritis may lead to acute or terminal renal failure. An experimental model of SLE consists of female F1 mice derived from crossing of the NZB strain with NZW. To evaluate the possible effect of […] in SLE, we treated female NZB/NZW F1 mice with 0.25 mg of […] or carrier 5 days a week for six weeks, starting the treatment when the mice had developed anti-DNA antibodies.

[6] = system: female NOD mice; test: Type 1 diabetes spontaneous model; type: in vivo, mouse; conditions: 0.25 mg intravenously 5 days every two weeks from 11 weeks of age; at the 28th week; carriers 7 out of 14
From the text: NOD (“non-obese diabetic”) mice represent the spontaneous murine model of type 1 diabetes (Adorini et al., 2002). The loss of metabolic control characterized by hyperglycaemia and glycosuria, which defines the disease clinically, is preceded by a long phase called pre-diabetes, during which the response to specific autoantigens of the beta cells of the pancreas develops subclinically, but progressively. In the NOD mice, the disease begins clinically around the 14th week of age when the infiltrating inflammatory cells invade the islets and develop an aggressive insulitis, which leads to destruction of the beta cells and causes hyperglycaemia (Anderson and Bluestone, 2005). The autoreactive CD4+ and CD8+ T cells play a fundamental role in the pathogenesis of type 1 diabetes.
We treated female NOD mice at 11 weeks of age with 0.25 mg […] or carriers intravenously for 5 days every two weeks and monitored glycaemia every week. Only one out of 8 mice treated with […] developed diabetes at the 28th week of age, whereas 7 out of 14 mice treated with carriers developed diabetes or died starting from the 14th week of age (FIG. 32).

[7] = system: dendritic cells (DCs); test: Maturation of dendritic cells (flow cytometry of membrane antigens); type: cell-based
Protocol: The effect of […] on the various stages of maturation of the DCs was evaluated. The study was carried out using flow cytometry by analysing the principal membrane antigens characterizing the stage of differentiation and maturation of the DCs.
The DCs were obtained from peripheral whole blood and were plated in a suitable medium (DC medium). The immature DCs (DCi) on day 6 of culture were collected, analysed in the cytofluorimeter and were brought to maturation by stimulation with LPS 10 μg/ml overnight (O.N.). […] 300 μM was added to DC medium during the last 5 hours or simultaneously with maturation of the DCi with LPS (10 μg/ml) overnight. CD1a is a marker of immaturity specific to the DCs, expression of which decreases in mature DCs.
CD80 and CD86 are fundamental co-stimulatory molecules in the process of antigen presentation, and expression of them generally increases in mature DCs compared to immature DCs.

[8] = 60 days from the end of treatment

SMILES: C=C(C=O)OC(C=O)n1cnc2c(N)ncnc21 (stereo not drawn) [2-[1-(6-aminopurin-9-yl)-2-oxoethoxy]prop-2-enal]
- visceral pain (number of contractions after acetic acid) [1]: effective in the treatment of visceral pain
- cellular production of VEGF [2]: reduced the cellular production of VEGF significantly
- allergic reaction (thickness of the ear) [3]: able to inhibit the allergic reaction
- immune cells and mediators of inflammation in BALF [4]: Significantly lower levels of immune cells and mediators of inflammation
- proteinuria ([5]; 0.25 mg 5 days a week for six weeks, two months following the treatment): did not appear
- deposition of immune complexes (histopathological score) [5, 8]: significant decrease
- glomerular proliferation (histopathological score) [5, 8]: significant decrease
- lymphocyte infiltration (histopathological score) [5, 8]: significant decrease
- mice that developed diabetes [6]: one out of 8
- modulation of CD40 (negative regulation) ([7]; 300 μM): less marked
- modulation of CD54 (negative regulation) ([7]; 300 μM): less marked
- class I histocompatibility antigen ([7]; 300 μM, both overnight and at 5 hours): decreases
- CD80 expression ([7]; DCs matured with LPS, 300 μM): no effects on CD80
- CD86 expression ([7]; DCs matured with LPS, 300 μM): negative regulation of CD86
- CD1a expression (marker of immaturity) ([7]; DCs matured with LPS, IMMUFLAM 300 μM at 5 hrs, vs LPS alone): shown to increase
